Source: a compilation of properties of binary mixtures (doi:10.1016/j.jct.2020.106093)

Assay: xn = mol fraction of the nth substance listed
Conditions: 100.9 kPa, x2 = 0

`O` + CC(=O)[O-].CC[NH2+]CC showed a viscosity (283.15 K) of 1.306 mPa·s, a viscosity (288.15 K) of 1.138 mPa·s and a viscosity (290.65 K) of 1.066 mPa·s. For the same compound, the viscosity (293.15 K) was 1.002 mPa·s, the viscosity (295.65 K) was 0.943 mPa·s and the viscosity (298.15 K) was 0.89 mPa·s. The viscosity (303.15 K) was 0.797 mPa·s, the viscosity (305.65 K) was 0.757 mPa·s and the viscosity (308.15 K) was 0.719 mPa·s. The viscosity (310.65 K) was 0.685 mPa·s, the speed of sound (313.15 K) was 1529.2 m/s and the viscosity (313.15 K) was 0.653 mPa·s. The viscosity (315.65 K) was 0.624 mPa·s, the speed of sound (318.15 K) was 1536.8 m/s and the viscosity (318.15 K) was 0.596 mPa·s. For the same compound, the viscosity (323.15 K) was 0.547 mPa·s, the viscosity (325.65 K) was 0.525 mPa·s and the viscosity (328.15 K) was 0.504 mPa·s. The viscosity (330.65 K) was 0.485 mPa·s, the viscosity (333.15 K) was 0.466 mPa·s and the viscosity (338.15 K) was 0.433 mPa·s. It also gave a viscosity (340.65 K) of 0.418 mPa·s.
